This is an account of results in paper PMC7553383 (ACS Chemical Neuroscience, 2020).

Each structure is given as a SMILES string.

One test has as its target T1, GIRK1/4 channels (Homo sapiens, UniProt P48544+P48549).
T1 sequence (P48549 1-501): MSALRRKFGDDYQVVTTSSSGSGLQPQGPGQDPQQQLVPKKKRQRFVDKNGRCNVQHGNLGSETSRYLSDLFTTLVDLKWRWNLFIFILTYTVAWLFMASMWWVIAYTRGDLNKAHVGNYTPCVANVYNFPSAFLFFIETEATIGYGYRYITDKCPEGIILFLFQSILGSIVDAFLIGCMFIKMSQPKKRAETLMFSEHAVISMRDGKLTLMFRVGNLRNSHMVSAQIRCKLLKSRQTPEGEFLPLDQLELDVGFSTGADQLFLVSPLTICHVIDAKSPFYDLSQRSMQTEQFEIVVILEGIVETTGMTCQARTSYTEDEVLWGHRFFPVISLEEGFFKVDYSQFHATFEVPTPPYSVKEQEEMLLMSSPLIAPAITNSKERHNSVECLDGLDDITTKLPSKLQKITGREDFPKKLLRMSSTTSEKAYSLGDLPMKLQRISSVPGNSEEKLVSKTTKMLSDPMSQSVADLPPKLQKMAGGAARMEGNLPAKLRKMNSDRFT
T1 sequence (P48544 1-419): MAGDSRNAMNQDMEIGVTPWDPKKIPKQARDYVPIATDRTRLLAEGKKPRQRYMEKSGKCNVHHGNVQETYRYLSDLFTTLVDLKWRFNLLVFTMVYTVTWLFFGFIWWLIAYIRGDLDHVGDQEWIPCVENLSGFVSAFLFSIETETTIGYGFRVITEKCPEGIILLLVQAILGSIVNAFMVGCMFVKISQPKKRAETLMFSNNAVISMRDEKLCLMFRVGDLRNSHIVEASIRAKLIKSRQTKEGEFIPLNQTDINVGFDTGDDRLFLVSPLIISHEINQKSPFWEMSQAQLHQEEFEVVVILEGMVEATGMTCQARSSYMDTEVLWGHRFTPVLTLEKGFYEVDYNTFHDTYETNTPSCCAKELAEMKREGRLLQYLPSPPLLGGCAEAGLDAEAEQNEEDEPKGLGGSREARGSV
In words: Ligand-induced GIRK channel block in oocytes expressing GIRK channels in the absence of D2R. It is filed as cell-based. The conditions noted are these: for Ligand-induced GIRK channel block: 30 μM ligand, oocytes without D2R; for Current amplitude following application of ligand in the absence of D2R expression: oocytes injected with GIRK1 and GIRK4. From the text: Figure S1. Effect of competing ligands on GIRK currents in the absence of D2R expression. Current
Figure S2. Intrinsic activities of aripiprazole analogues at WT D2R. Agonist responses of SWR-1-8, SV-III- […]

In the next test the target is T2, D2R (Homo sapiens, UniProt P14416).
T2 construct: expressed in transfected cells
As to the kind of experiment: BRET beta-arrestin2 recruitment curve-shift assay in transfected HEK293 cells. The test is classed as cell-based. Particulars: 5 min preincubation with antagonist before dopamine.

The target in test [1] is T3, D2R WT (Homo sapiens, UniProt P14416). As to the kind of experiment: cell-based.
In test [2] the target is T3, D2R WT. In words: G protein-coupled inward rectifier potassium (GIRK) channel activation assay in Xenopus oocytes coexpressing D2R, RGS4 and GIRK1/4.

T3 sequence (P14416 whole entry): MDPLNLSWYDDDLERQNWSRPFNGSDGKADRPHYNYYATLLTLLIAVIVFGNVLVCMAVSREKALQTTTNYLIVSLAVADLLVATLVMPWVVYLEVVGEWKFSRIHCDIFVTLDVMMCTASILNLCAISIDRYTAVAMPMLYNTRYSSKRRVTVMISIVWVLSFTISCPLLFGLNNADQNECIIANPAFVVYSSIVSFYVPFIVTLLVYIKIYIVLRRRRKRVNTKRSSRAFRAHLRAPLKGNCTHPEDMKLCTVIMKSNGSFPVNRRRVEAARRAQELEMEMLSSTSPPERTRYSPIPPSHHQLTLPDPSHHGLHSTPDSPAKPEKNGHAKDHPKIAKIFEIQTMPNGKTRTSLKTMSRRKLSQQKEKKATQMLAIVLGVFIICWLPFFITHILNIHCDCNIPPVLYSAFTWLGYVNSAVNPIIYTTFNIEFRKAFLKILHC
T2 sequence (P14416 whole entry): as above

Take `COc1ccccc1N1CCN(CCCCCOc2ccc3c(c2)NC(=O)CC3)CC1` [SWR-1-14]: on GIRK1/4 channels, the “Ligand-induced GIRK channel block” value was less than 10%. The “Current amplitude following application of ligand in the absence of D2R expression” value (“Current amplitude following application” below) on GIRK1/4 channels (30 µM ligand) is 0.90 ± 0.01.
As to `COc1ccccc1N1CCN(CCCCOc2ccc3c(c2)NC(=O)CC3)CC1` [SV-III-130], the “Current amplitude following application” value at GIRK1/4 channels (1 µM ligand) stood at 1.00 ± 0.02. Moreover, at GIRK1/4 channels, the “Ligand-induced GIRK channel block” value is less than 10%.
Consider `COc1ccccc1N1CCN(CCCOc2ccc3c(c2)NC(=O)CC3)CC1` [SWR-1-8], for which, on GIRK1/4 channels, the “Ligand-induced GIRK channel block” value is on record as less than 10%. For the same molecule, the “Current amplitude following application” value at GIRK1/4 channels (30 µM ligand) is given as 0.99 ± 0.06. Further, the “mode of antagonism of DA-induced beta-arrestin2 recruitment” value on D2R is “competitive antagonism”. In addition, the inhibition constant Ki (usually the dissociation constant of the complex between target and ligand, obtained from inhibition or displacement) at D2R WT [1] was 9.77 nM. In addition, on D2R WT [2], the dissociation constant (Kd) (as a rule, the equilibrium constant for the complex coming apart) is 50.1 nM and the off-rate constant (koff) (commonly the first-order rate constant of dissociation) is 0.017 ± 0.002 s⁻¹. On D2R WT [2] (WT D2R, normalized to 1 μM DA), the “intrinsic activity in the GIRK activation assay (in words)” value was “antagonists/inverse agonists”.
